Laboratory results reported in article PMC5844530, “Fosmetpantotenate (RE-024), a phosphopantothenate replacement therapy for pantothenate kinase-associated neurodegeneration: Mechanism of action and efficacy in nonclinical models” (PLoS ONE, 2018).
Values joined by “and” are separate entries in the source; they are usually repeats but may differ in a detail not shown here. Equal values may be shown once.

Legend:
[1] = Pharmacokinetics in whole blood, CD-1 mice; conditions: CD-1 mice, individual animals; for concentration at 0.083 hr / concentration at 0.333 h / concentration at 0.5 h / concentration at 1 h / concentration at 4 h: male, CD-1, mouse, in vivo, po, Compound 1 Whole Blood Conc.
[2] = Pharmacokinetics in whole blood, cynomolgus monkeys
Protocol: The whole blood samples (0.5 mL) were collected into syringes that were prefilled with 2.5 mL of ice-cold 0.1% formic acid in acetonitrile. The volume ratio of the whole blood to 0.1% formic acid in acetonitrile was 1/5 (v/v). Samples were frozen (-70°C) until analyzed by LC-MS/MS.
Standard curves and quality control (QC) samples were prepared fresh on the day of analysis by serial dilution of the standard mixture in quenched whole blood (1 part of blood to 5 parts of 0.1% formic acid in acetonitrile) and centrifuged. […] The frozen study samples were thawed in an ice/water bath and centrifuged. Supernatant (50 μL) from standards, QC samples, and study samples was transferred to a 96-well plate and dried completely under nitrogen. The dried residues were reconstituted with 100 μL of 0.1% formic acid in water containing internal standard (5 ng/mL of ^15N/^13C3-RE-024-02) and analyzed by LC-MS/MS.
LC-MS/MS analysis for blood pharmacokinetic samples: Samples were analyzed using an Agilent 1100 binary pump (Agilent Technologies, Santa Clara, CA, USA), connected to an AB Sciex API 6500 mass spectrometer (SCIEX, Framingham, MA, USA). An electrospray ionization source was used, scanning in the positive mode. […] The chromatography column was a Varian Metasil AQ 120–5 C18 column, 5 μm, 50 x 2.00 mm (Part No. A0530050X020) at ambient temperature, with a 0.5 mL/min flow rate and a 20 μL injection volume. Mobile phase (A) consisted of 0.1% formic acid in water; while mobile phase (B) consisted of 0.1% formic acid in acetonitrile:water (9:1, v/v).
Quantitation of in vivo samples: Peak areas were integrated using Analyst software (AB Sciex, Concord, Ontario, Canada). […] Calibration standards (at a minimum 7 per curve) were fit by linear regression with (1/x^2) weighting. QC samples were used (triplicate) at 3 concentrations for all tandem mass spectrometry (MS/MS) runs.
Pharmacokinetic calculations: PK analysis was performed using Phoenix WinNonlin®, Build 6.3.0.395 (Certara, Princeton, NJ, USA) using a non-compartmental model (PO dose = model 200 for extravascular dosing). […] Post-dose concentrations below the limit of quantitation (BLQ) were omitted from calculation.

SMILES: COC(=O)CCNC(=O)[C@@H]1OP(=O)(N[C@@H](C)C(=O)OC)OCC1(C)C (some centres unmarked) [Compound 1]
- Compound 1 Whole Blood Conc. ([1]; 300 mg/kg RE-024-02 by PO, 0.167 hr, LLOQ 0.6 ng/mL, 300 mg/kg): 21.9 ng/mL and 24.1 ng/mL and 53.3 ng/mL and 17.7 ng/mL
- Compound 1 Whole Blood Conc. ([1]; 300 mg/kg RE-024-02 by PO, 0.167 hr, LLOQ 1.6 nM, 300 mg/kg): 57.6 nM and 63.3 nM and 140.1 nM and 46.5 nM
- Compound 1 Whole Blood Conc. ([1]; 300 mg/kg RE-024-02 by PO, 0.333 hr, LLOQ 0.6 ng/mL, 300 mg/kg): 2.4 ng/mL and 4.3 ng/mL and 3.8 ng/mL and 1.5 ng/mL
- Compound 1 Whole Blood Conc. ([1]; 300 mg/kg RE-024-02 by PO, 0.333 hr, LLOQ 1.6 nM, 300 mg/kg): 6.2 nM and 11.3 nM and 10 nM and 3.9 nM
- Compound 1 Whole Blood Conc. ([1]; 300 mg/kg RE-024-02 by PO, 0.5 hr, LLOQ 0.6 ng/mL, 300 mg/kg): 4.4 ng/mL and 4.5 ng/mL and 2.8 ng/mL
- Compound 1 Whole Blood Conc. ([1]; 300 mg/kg RE-024-02 by PO, 0.5 hr, LLOQ 1.6 nM, 300 mg/kg): 11.5 nM and 11.9 nM and 7.4 nM
- Compound 1 Whole Blood Conc. ([1]; 300 mg/kg RE-024-02 by PO, 1 hr, LLOQ 0.6 ng/mL, 300 mg/kg): BQL
- Compound 1 Whole Blood Conc. ([1]; 300 mg/kg RE-024-02 by PO, 1 hr, LLOQ 1.6 nM, 300 mg/kg): BQL
- Compound 1 Whole Blood Conc. ([1]; 300 mg/kg RE-024-02 by PO, 2 hr, LLOQ 0.6 ng/mL): BQL
- Compound 1 Whole Blood Conc. ([1]; 300 mg/kg RE-024-02 by PO, 2 hr, LLOQ 1.6 nM): BQL
- Compound 1 Whole Blood Conc. ([1]; 300 mg/kg RE-024-02 by PO, 4 hr, LLOQ 0.6 ng/mL): BQL
- Compound 1 Whole Blood Conc. ([1]; 300 mg/kg RE-024-02 by PO, 4 hr, LLOQ 1.6 nM): BQL
- Compound 1 Whole Blood Conc. ([1]; 300 mg/kg RE-024-02 by PO, 8 hr, LLOQ 0.6 ng/mL): BQL
- Compound 1 Whole Blood Conc. ([1]; 300 mg/kg RE-024-02 by PO, 8 hr, LLOQ 1.6 nM): BQL
- Compound 1 Whole Blood Conc. ([1]; 700 mg/kg RE-024-02 by PO, 0.033 hr, LLOQ 0.6 ng/mL, 700 mg/kg): 22.6 ng/mL and 66.6 ng/mL and 198 ng/mL and 119.4 ng/mL
- Compound 1 Whole Blood Conc. ([1]; 700 mg/kg RE-024-02 by PO, 0.033 hr, LLOQ 1.6 nM, 700 mg/kg): 59.3 nM and 175.1 nM and 520.6 nM and 313.9 nM
- Compound 1 Whole Blood Conc. ([1]; 700 mg/kg RE-024-02 by PO, 0.083 hr, LLOQ 0.6 ng/mL, 700 mg/kg): 165 ng/mL and 2.2 ng/mL and 624 ng/mL and 75 ng/mL
- Compound 1 Whole Blood Conc. ([1]; 700 mg/kg RE-024-02 by PO, 0.083 hr, LLOQ 1.6 nM, 700 mg/kg): 433.8 nM and 5.9 nM and 1640.7 nM and 197.2 nM
- Compound 1 Whole Blood Conc. ([1]; 700 mg/kg RE-024-02 by PO, 0.167 hr, LLOQ 0.6 ng/mL, 700 mg/kg): 636 ng/mL and 235.8 ng/mL and 165 ng/mL and 720 ng/mL
- Compound 1 Whole Blood Conc. ([1]; 700 mg/kg RE-024-02 by PO, 0.167 hr, LLOQ 1.6 nM, 700 mg/kg): 1672.2 nM and 620 nM and 433.8 nM and 1893.1 nM
- Compound 1 Whole Blood Conc. ([1]; 700 mg/kg RE-024-02 by PO, 0.333 hr, LLOQ 0.6 ng/mL, 700 mg/kg): 63.6 ng/mL
- Compound 1 Whole Blood Conc. ([1]; 700 mg/kg RE-024-02 by PO, 0.333 hr, LLOQ 1.6 nM, 700 mg/kg): 167.2 nM
- Compound 1 Whole Blood Conc. ([1]; 700 mg/kg RE-024-02 by PO, 0.5 hr, LLOQ 0.6 ng/mL, 700 mg/kg): 12 ng/mL and 41.6 ng/mL and 9.4 ng/mL and 22.9 ng/mL
- Compound 1 Whole Blood Conc. ([1]; 700 mg/kg RE-024-02 by PO, 0.5 hr, LLOQ 1.6 nM, 700 mg/kg): 31.6 nM and 109.3 nM and 24.8 nM and 60.1 nM
- Compound 1 Whole Blood Conc. ([1]; 700 mg/kg RE-024-02 by PO, 1 hr, LLOQ 0.6 ng/mL, 700 mg/kg): 48.8 ng/mL and 16 ng/mL and 6.1 ng/mL and 8.8 ng/mL
- Compound 1 Whole Blood Conc. ([1]; 700 mg/kg RE-024-02 by PO, 1 hr, LLOQ 1.6 nM, 700 mg/kg): 128.4 nM and 42.1 nM and 15.9 nM and 23.2 nM
- Compound 1 Whole Blood Conc. ([1]; 700 mg/kg RE-024-02 by PO, 2 hr, LLOQ 0.6 ng/mL, 700 mg/kg): 5.5 ng/mL and 4 ng/mL and 5.6 ng/mL and 10.2 ng/mL
- Compound 1 Whole Blood Conc. ([1]; 700 mg/kg RE-024-02 by PO, 2 hr, LLOQ 1.6 nM, 700 mg/kg): 14.6 nM and 10.4 nM and 14.8 nM and 26.8 nM
- Compound 1 Whole Blood Conc. ([1]; 700 mg/kg RE-024-02 by PO, 4 hr, LLOQ 0.6 ng/mL, 700 mg/kg): BQL
- Compound 1 Whole Blood Conc. ([1]; 700 mg/kg RE-024-02 by PO, 4 hr, LLOQ 1.6 nM, 700 mg/kg): BQL
- Compound 1 Whole Blood Conc. ([1]; 700 mg/kg RE-024-02 by PO, 8 hr, LLOQ 0.6 ng/mL): BQL
- Compound 1 Whole Blood Conc. ([1]; 700 mg/kg RE-024-02 by PO, 8 hr, LLOQ 1.6 nM): BQL
- concentration at 0.083 hr ([1]; 100 mg/kg, 100 mg/kg RE-024-02 by PO, 0.083 hr, LLOQ 0.6 ng/mL): 1.4 ng/mL
- concentration at 0.083 hr ([1]; 100 mg/kg, 100 mg/kg RE-024-02 by PO, 0.083 hr, LLOQ 1.6 nM): 3.8 nM
- concentration at 0.333 h ([1]; 100 mg/kg, 100 mg/kg RE-024-02 by PO, 0.333 hr, LLOQ 0.6 ng/mL): 0.8 ng/mL
- concentration at 0.333 h ([1]; 100 mg/kg, 100 mg/kg RE-024-02 by PO, 0.333 hr, LLOQ 1.6 nM): 2 nM
- concentration at 0.5 h ([1]; 300 mg/kg, 300 mg/kg RE-024-02 by PO, 0.5 hr, LLOQ 0.6 ng/mL): 5 ng/mL
- concentration at 0.5 h ([1]; 300 mg/kg, 300 mg/kg RE-024-02 by PO, 0.5 hr, LLOQ 1.6 nM): 13.1 nM
- concentration at 1 h ([1]; 300 mg/kg, 300 mg/kg RE-024-02 by PO, 1 hr, LLOQ 0.6 ng/mL): 0.8 ng/mL
- concentration at 1 h ([1]; 300 mg/kg, 300 mg/kg RE-024-02 by PO, 1 hr, LLOQ 1.6 nM): 2.1 nM
- concentration at 0.333 h ([1]; 700 mg/kg, 700 mg/kg RE-024-02 by PO, 0.333 hr, LLOQ 0.6 ng/mL): 109 ng/mL
- concentration at 0.333 h ([1]; 700 mg/kg, 700 mg/kg RE-024-02 by PO, 0.333 hr, LLOQ 1.6 nM): 286 nM
- concentration at 4 h ([1]; 700 mg/kg, 700 mg/kg RE-024-02 by PO, 4 hr, LLOQ 0.6 ng/mL): 0.8 ng/mL
- concentration at 4 h ([1]; 700 mg/kg, 700 mg/kg RE-024-02 by PO, 4 hr, LLOQ 1.6 nM): 2.1 nM
- % Parent AUCAll ([2]; Cynomolgus monkey, 300 mg/kg PO, metabolite AUCall/Parent AUCall x 100): 19%
- concentration at 0.083 h ([2]; cynomolgus monkey, in vivo, po, 300 mg/kg, Concentration of compound 1 in whole blood, cynomolgus monkeys, single oral 300 mg/kg fosmetpantotenate, 0.083 hr, sum of diastereomers, LLOQ 1.58 nM): 17.2 nM
- concentration at 0.5 h ([2]; cynomolgus monkey, in vivo, po, 300 mg/kg, Concentration of compound 1 in whole blood, cynomolgus monkeys, single oral 300 mg/kg fosmetpantotenate, 0.5 hr, sum of diastereomers, LLOQ 1.58 nM): 2480 nM
- concentration at 4 h ([2]; cynomolgus monkey, in vivo, po, 300 mg/kg, Concentration of compound 1 in whole blood, cynomolgus monkeys, single oral 300 mg/kg fosmetpantotenate, 4 hr, sum of diastereomers, LLOQ 1.58 nM): 54.6 nM
- concentration at 8 h ([2]; cynomolgus monkey, in vivo, po, 300 mg/kg, Concentration of compound 1 in whole blood, cynomolgus monkeys, single oral 300 mg/kg fosmetpantotenate, 8 hr, sum of diastereomers, LLOQ 1.58 nM): 7.89 nM
- Concentration of compound 1 in whole blood ([2]; cynomolgus monkeys, single oral 300 mg/kg fosmetpantotenate, 0.083 hr, sum of diastereomers, LLOQ 1.58 nM, 300 mg/kg): 11.28 nM
- Concentration of compound 1 in whole blood ([2]; cynomolgus monkeys, single oral 300 mg/kg fosmetpantotenate, 0.5 hr, sum of diastereomers, LLOQ 1.58 nM, 300 mg/kg): 3160.36 nM
- Concentration of compound 1 in whole blood ([2]; cynomolgus monkeys, single oral 300 mg/kg fosmetpantotenate, 4 hr, sum of diastereomers, LLOQ 1.58 nM, 300 mg/kg): 96.23 nM
- Concentration of compound 1 in whole blood ([2]; cynomolgus monkeys, single oral 300 mg/kg fosmetpantotenate, 8 hr, sum of diastereomers, LLOQ 1.58 nM, 300 mg/kg): 4.57 nM
